Like-named read-outs stand apart in the source and are kept apart here.
Tests used:
[1] = system: full panel of 59 cancer cell lines; experiment: NCI antitumor screen, full panel; conditions: one dose 10 µM
[2] = system: COLO 205; experiment: NCI antitumor screen (SRB); assay type: cell-based; conditions: Homo sapiens, one dose 10 µM, read-out: Growth inhibition percentage (GI%)
[3] = system: UACC-257; experiment: NCI antitumor screen (SRB); assay type: cell-based, human; conditions: Homo sapiens, one dose 10 µM, read-out: Growth inhibition percentage (GI%)
[4] = system: UO-31; experiment: NCI antitumor screen (SRB); assay type: cell-based, human; conditions: Homo sapiens, one dose 10 µM, read-out: Growth inhibition percentage (GI%)
[5] = system: SNB-75; experiment: NCI antitumor screen (SRB); assay type: cell-based; conditions: Homo sapiens, one dose 10 µM, read-out: Growth inhibition percentage (GI%)
[6] = system: HL-60(TB); experiment: cells; assay type: cell-based, human; conditions: Homo sapiens, HL-60, HL-60(TB); one dose 10 µM; read-out: Growth inhibition percentage (GI%)
[7] = system: MOLT-4; experiment: NCI antitumor screen (SRB); assay type: cell-based; conditions: Homo sapiens, one dose 10 µM, read-out: Growth inhibition percentage (GI%)
[8] = system: A549/ATCC; experiment: NCI antitumor screen (SRB); assay type: cell-based; conditions: Homo sapiens, one dose 10 µM, read-out: Growth inhibition percentage (GI%)
[9] = system: K-562; experiment: NCI antitumor screen (SRB); assay type: cell-based; conditions: Homo sapiens, K562, read-out: Growth inhibition percentage (GI%)
[10] = system: SK-OV-3; experiment: NCI antitumor screen (SRB); assay type: cell-based; conditions: Homo sapiens, one dose 10 µM, read-out: Growth inhibition percentage (GI%)
[11] = system: MALME-3M; experiment: NCI antitumor screen (SRB); assay type: cell-based; conditions: Homo sapiens, one dose 10 µM, read-out: Growth inhibition percentage (GI%)
[12] = system: SR; experiment: NCI antitumor screen (SRB); assay type: cell-based; conditions: Homo sapiens, one dose 10 µM, read-out: Growth inhibition percentage (GI%)
[13] = system: TK-10; experiment: NCI antitumor screen (SRB); assay type: cell-based; conditions: Homo sapiens, one dose 10 µM, read-out: Growth inhibition percentage (GI%)
[14] = system: SK-MEL-28; experiment: NCI antitumor screen (SRB); assay type: cell-based, human; conditions: Homo sapiens, SK-MEL-28, SK-MEL-28; one dose 10 µM; read-out: Growth inhibition percentage (GI%)
[15] = system: NCI-H23; experiment: NCI antitumor screen (SRB); assay type: cell-based; conditions: Homo sapiens, one dose 10 µM, read-out: Growth inhibition percentage (GI%)
[16] = system: CAKI-1; experiment: NCI antitumor screen (SRB); assay type: cell-based; conditions: Homo sapiens, one dose 10 µM, read-out: Growth inhibition percentage (GI%)
[17] = system: SF-295; experiment: NCI antitumor screen (SRB); assay type: cell-based; conditions: Homo sapiens, one dose 10 µM, read-out: Growth inhibition percentage (GI%)
[18] = system: OVCAR-4; experiment: NCI antitumor screen (SRB); assay type: cell-based; conditions: Homo sapiens, one dose 10 µM, read-out: Growth inhibition percentage (GI%)
[19] = system: MCF7; experiment: NCI antitumor screen (SRB); assay type: cell-based; conditions: Homo sapiens, one dose 10 µM, read-out: Growth inhibition percentage (GI%)
[20] = system: HCT-15; experiment: NCI antitumor screen (SRB); assay type: cell-based; conditions: Homo sapiens, one dose 10 µM, read-out: Growth inhibition percentage (GI%)
[21] = system: OVCAR-8; experiment: NCI antitumor screen (SRB); assay type: cell-based; conditions: Homo sapiens, one dose 10 µM, read-out: Growth inhibition percentage (GI%)
[22] = system: RXF 393; experiment: NCI antitumor screen (SRB); assay type: cell-based; conditions: Homo sapiens, one dose 10 µM, read-out: Growth inhibition percentage (GI%)
[23] = system: LOX IMVI; experiment: NCI antitumor screen (SRB); assay type: cell-based; conditions: Homo sapiens, one dose 10 µM, read-out: Growth inhibition percentage (GI%)
[24] = system: ACHN; experiment: NCI antitumor screen (SRB); assay type: cell-based; conditions: Homo sapiens, one dose 10 µM, read-out: Growth inhibition percentage (GI%)
[25] = system: 786-0; experiment: NCI antitumor screen (SRB); assay type: cell-based; conditions: Homo sapiens, one dose 10 µM, read-out: Growth inhibition percentage (GI%)
[26] = system: HT29; experiment: NCI antitumor screen (SRB); assay type: cell-based; conditions: Homo sapiens, HT-29, one dose 10 µM, read-out: Growth inhibition percentage (GI%)
[27] = system: M14; experiment: NCI antitumor screen (SRB); assay type: cell-based; conditions: Homo sapiens, one dose 10 µM, read-out: Growth inhibition percentage (GI%)
[28] = system: DU-145; experiment: NCI antitumor screen (SRB); assay type: cell-based; conditions: Homo sapiens, one dose 10 µM, read-out: Growth inhibition percentage (GI%)
[29] = system: SF-268; experiment: NCI antitumor screen (SRB); assay type: cell-based; conditions: Homo sapiens, one dose 10 µM, read-out: Growth inhibition percentage (GI%)
[30] = system: KM12; experiment: NCI antitumor screen (SRB); assay type: cell-based; conditions: Homo sapiens, one dose 10 µM, read-out: Growth inhibition percentage (GI%)
[31] = system: PRMI-8226; experiment: NCI antitumor screen (SRB); assay type: cell-based; conditions: Homo sapiens, one dose 10 µM, read-out: Growth inhibition percentage (GI%)
[32] = system: SF-539; experiment: NCI antitumor screen (SRB); assay type: cell-based; conditions: Homo sapiens, one dose 10 µM, read-out: Growth inhibition percentage (GI%)
[33] = system: PC-3; experiment: NCI antitumor screen (SRB); assay type: cell-based; conditions: Homo sapiens, one dose 10 µM, read-out: Growth inhibition percentage (GI%)
[34] = system: IGROV1; experiment: NCI antitumor screen (SRB); assay type: cell-based; conditions: Homo sapiens, IGROV-1, one dose 10 µM, read-out: Growth inhibition percentage (GI%)
[35] = system: OVCAR-3; experiment: NCI antitumor screen (SRB); assay type: cell-based; conditions: Homo sapiens, one dose 10 µM, read-out: Growth inhibition percentage (GI%)
[36] = system: A498; experiment: NCI antitumor screen (SRB); assay type: cell-based; conditions: Homo sapiens, one dose 10 µM, read-out: Growth inhibition percentage (GI%)
[37] = system: SN12C; experiment: NCI antitumor screen (SRB); assay type: cell-based; conditions: Homo sapiens, one dose 10 µM, read-out: Growth inhibition percentage (GI%)
[38] = system: MDA-MB-468; experiment: NCI antitumor screen (SRB); assay type: cell-based; conditions: Homo sapiens, one dose 10 µM, read-out: Growth inhibition percentage (GI%)
[39] = system: U251; experiment: NCI antitumor screen (SRB); assay type: cell-based; conditions: Homo sapiens, U-251, one dose 10 µM, read-out: Growth inhibition percentage (GI%)
[40] = system: HCT-116; experiment: NCI antitumor screen (SRB); assay type: cell-based; conditions: Homo sapiens, read-out: Growth inhibition percentage (GI%)
[41] = system: NCI-H226; experiment: NCI antitumor screen (SRB); assay type: cell-based; conditions: Homo sapiens, one dose 10 µM, read-out: Growth inhibition percentage (GI%)
[42] = system: HS 578 T; experiment: NCI antitumor screen (SRB); assay type: cell-based; conditions: Homo sapiens, one dose 10 µM, read-out: Growth inhibition percentage (GI%)
[43] = system: BT-549; experiment: NCI antitumor screen (SRB); assay type: cell-based; conditions: Homo sapiens, one dose 10 µM, read-out: Growth inhibition percentage (GI%)
[44] = system: NCI-H460; experiment: NCI antitumor screen (SRB); assay type: cell-based; conditions: Homo sapiens, one dose 10 µM, read-out: Growth inhibition percentage (GI%)
[45] = system: CCRF-CEM; experiment: NCI antitumor screen (SRB); assay type: cell-based; conditions: Homo sapiens, one dose 10 µM, read-out: Growth inhibition percentage (GI%)
[46] = system: T-47D; experiment: NCI antitumor screen (SRB); assay type: cell-based; conditions: Homo sapiens, T47D, one dose 10 µM, read-out: Growth inhibition percentage (GI%)
[47] = system: HCC-2998; experiment: NCI antitumor screen (SRB); assay type: cell-based; conditions: Homo sapiens, one dose 10 µM, read-out: Growth inhibition percentage (GI%)
[48] = system: MDA-MB-231/ATCC; experiment: NCI antitumor screen (SRB); assay type: cell-based; conditions: Homo sapiens, one dose 10 µM, read-out: Growth inhibition percentage (GI%)
[49] = system: NCI/ADR-RES; experiment: NCI antitumor screen (SRB); assay type: cell-based; conditions: Homo sapiens, one dose 10 µM, read-out: Growth inhibition percentage (GI%)
[50] = system: UACC-62; experiment: NCI antitumor screen (SRB); assay type: cell-based; conditions: Homo sapiens, one dose 10 µM, read-out: Growth inhibition percentage (GI%)
[51] = system: SNB-19; experiment: NCI antitumor screen (SRB); assay type: cell-based; conditions: Homo sapiens, one dose 10 µM, read-out: Growth inhibition percentage (GI%)
[52] = system: OVCAR-5; experiment: NCI antitumor screen (SRB); assay type: cell-based; conditions: Homo sapiens, one dose 10 µM, read-out: Growth inhibition percentage (GI%)
[53] = system: EKVX; experiment: NCI antitumor screen (SRB); assay type: cell-based; conditions: Homo sapiens, one dose 10 µM, read-out: Growth inhibition percentage (GI%)
[54] = system: ovarian cancer tumour cell lines; experiment: NCI antitumor screen, subpanel; assay type: cell-based; conditions: 10 µM
[55] = system: SW-620; experiment: NCI antitumor screen (SRB); assay type: cell-based; conditions: Homo sapiens, one dose 10 µM, read-out: Growth inhibition percentage (GI%)
[56] = system: MDA-MB-435; experiment: NCI antitumor screen (SRB); assay type: cell-based; conditions: Homo sapiens, one dose 10 µM, read-out: Growth inhibition percentage (GI%)

For `COc1cc(C=NNC(=O)c2ccc(S(C)(=O)=O)cc2)cc(OC)c1OC` [Compound 23, 4-(Methylsulfonyl)-N'-(3,4,5-trimethoxybenzylidene)benzohydrazide], the “PCE: positive cytotoxic effect (number of cell lines with GI 10 to 100% / total number of cell lines)” value [1] was 9/59, the inhibition at 10 µM [2] was 14.6% and the inhibition at 10 µM ([3]; UACC-257) was 28.6%. For the same molecule, the inhibition at 10 µM ([4]; UO-31) was 10.2%, the inhibition at 10 µM [5] was 11.3% and the inhibition at 10 µM [6] was 44.2%. It also gave an inhibition at 10 µM [7] of 32.6%, an inhibition at 10 µM [8] of 22.8% and an inhibition at 10 µM [9] of 37.6%. For the same molecule, the inhibition at 10 µM [10] was 14.2%.
In the case of `Cc1ccc(NC(=O)c2ccc(CN3CCN(C)CC3)cc2)cc1Nc1nccc(-c2cccnc2)n1` [Imatinib, imatinib, reference compound], the inhibition at 10 µM [11] is reported as < 10%, the inhibition at 10 µM [12] is reported as 14.6% and the inhibition at 10 µM [13] is reported as < 10%. For the same molecule, the inhibition at 10 µM [14] was < 10%, the inhibition at 10 µM [15] was 17.1% and the inhibition at 10 µM [16] was < 10%. The inhibition at 10 µM [17] was 15.1%, the inhibition at 10 µM [18] was < 10% and the inhibition at 10 µM [19] was < 10%. For the same molecule, the “percentage mean growth (MG)” value ([1]; mean over cell lines) was 92.62%, the inhibition at 10 µM [20] was 11.5% and the inhibition at 10 µM [21] was < 10%. The inhibition at 10 µM [2] was < 10%, the inhibition at 10 µM [22] was < 10% and the inhibition at 10 µM [23] was 11.6%. The inhibition at 10 µM [24] was < 10%, the inhibition at 10 µM [25] was < 10% and the inhibition at 10 µM [26] was 47.1%. The inhibition at 10 µM ([3]; UACC-257, UACC-257) was < 10%, the inhibition at 10 µM [27] was < 10% and the inhibition at 10 µM [28] was 14.4%. The inhibition at 10 µM [29] was < 10%, the inhibition at 10 µM [30] was < 10% and the inhibition at 10 µM ([4]; UO-31, UO-31) was < 10%. For the same molecule, the inhibition at 10 µM [31] was 12.6%, the inhibition at 10 µM [32] was 24.5% and the inhibition at 10 µM [33] was 10.6%. The inhibition at 10 µM [5] was < 10%, the inhibition at 10 µM [6] was < 10% and the inhibition at 10 µM [34] was < 10%. For the same molecule, the inhibition at 10 µM [35] was < 10%, the inhibition at 10 µM [7] was 18% and the inhibition at 10 µM [36] was 13.7%. For the same molecule, the inhibition at 10 µM [37] was < 10%, the inhibition at 10 µM [8] was < 10% and the inhibition at 10 µM [38] was 29.1%. The inhibition at 10 µM [39] was 10.6%, the inhibition at 10 µM [40] was 18.6% and the inhibition at 10 µM [41] was 10.6%. For the same molecule, the inhibition at 10 µM [42] was < 10%, the inhibition at 10 µM [43] was < 10% and the inhibition at 10 µM [44] was < 10%. The inhibition at 10 µM [45] was < 10%, the inhibition at 10 µM [46] was 18.6% and the inhibition at 10 µM [47] was < 10%. The inhibition at 10 µM [48] was 11.2%, the inhibition at 10 µM [49] was < 10% and the inhibition at 10 µM [50] was < 10%. The inhibition at 10 µM [51] was < 10%, the inhibition at 10 µM [52] was < 10% and the inhibition at 10 µM [53] was 15.7%. For the same molecule, the “GI (range over subpanel cell lines)” value [54] was < 10.0%, the inhibition at 10 µM [55] was < 10% and the inhibition at 10 µM [10] was < 10%. For the same molecule, the inhibition at 10 µM [56] was < 10%.

Reference: article PMC8288134, “Synthesis, potential antitumor activity, cell cycle analysis, and multitarget mechanisms of novel hydrazones incorporating a 4-methylsulfonylbenzene scaffold: a molecular docking study” (Journal of Enzyme Inhibition and Medicinal Chemistry, 2021)
